# Measurements from US20260216057A1, “PHARMACEUTICAL COMPOSITIONS FOR HERPES VIRUS” (priority 2022, published 2026).
# Read-outs that look alike come from different tables or passages of the source.
# What was measured:
# HSV-1 [1] = test: HSV-1 antiviral assay, cytopathic effect (CPE) inhibition in vero cells; assay type: cell-based; conditions: 4 days, read-out: in vitro EC50 against HSV-1
# Procedure: (§1) Cytopathic Effect (CPE) Inhibition Assay
# (§2) Cell culture—vero cells were cultured in Dulbecco's Modified Eagle Medium (DMEM) supplemented with 10% fetal bovine serum and 100 units/mL penicillin and streptomycin. The cells were passaged 2-3 times per week to maintain sub-confluent densities.
# HSV-1 antiviral assay—vero cells were seeded into 96-well plates at a density of 2.5×10^3 cells per well and allowed to attach overnight. Following attachment, the media was replaced with 50 μL of infection medium (DMEM supplemented with 2% fetal bovine serum and 100 units/mL penicillin and streptomycin). A Tecan D300e digital dispenser was then used to add compounds to the culture using an 8-point 3-fold serial dilution format. The DMSO concentration was normalized to 0.5% for all treatments. Following compound addition, 50 μL of infection medium containing 80 TCID50 HSV-1 was added to the cells and incubated at 37° C. for 4 days. After the incubation, the plates were equilibrated to room temperature, the media was removed, and 60 μL of a 1:1 dilution of Cell titer glow and phosphate buffered saline was added to the cells. Following a 5-minute incubation, cell viability was quantified by measuring luminance using a Tecan Infinite M1000 Pro plate reader.
# (§3) Vero cells were cultured in Dulbecco's Modified Eagle Medium (DMEM) supplemented with 10% foetal bovine serum and 100 units/mL penicillin and streptomycin. The cells were passaged 2-3 times per week to maintain sub-confluent densities.
# Vero cells were seeded into 96-well plates at a density of 2.5×10^3 cells per well and allowed to attach overnight. Following attachment, the media was replaced with 50 μL of infection medium (DMEM supplemented with 2% foetal bovine serum and 100 units/mL penicillin and streptomycin). A Tecan D300e digital dispenser was then used to add compounds to the culture using an 8-point 3-fold serial dilution format. The DMSO concentration was normalized to 0.5% for all treatments. […] Following a 5-minute incubation, cell viability was quantified by measuring luminance using a Tecan Infinite M1000 Pro plate reader.
# HSV-2 G strain = test: HSV-2 antiviral assay, cytopathic effect (CPE) inhibition in vero cells; assay type: cell-based
# Procedure: as §1, §2
# (§4) HSV-2 antiviral assay—vero cells were seeded into 96-well plates at a density of 1.0×10^4 cells per well and allowed to attach overnight. Following attachment, the media was replaced with 50 μL of infection medium (DMEM supplemented with 2% fetal bovine serum and 100 units/mL penicillin and streptomycin). A Tecan D300e digital dispenser was then used to add compounds to the culture using an 8-point 3-fold serial dilution format. The DMSO concentration was normalized to 0.5% for all treatments. Following compound addition, 50 μL of infection medium containing 160 TCID50 HSV-2 G strain was added to the cells and incubated at 37° C. for 5 days. After the incubation, 10 μL/well of WST-8 chromogenic reagent was added and the plates incubated at 37° C. for 3 hours. Following the incubation, cell viability was quantified by measuring the absorbance at 460 nm and 620 nm using a Tecan Infinite M1000 Pro plate reader.
# as §3
# as §4, with “Vero” for “HSV-2 antiviral assay—vero”, “foetal” for “fetal”
# [2] = Example 4: pritelivir aqueous suspension SC PK study in dog; assay type: in vivo, male non-naïve Beagle dogs; conditions: aqueous suspension (dihydrate), 10 mg/kg, following an initial drug burst
# Procedure: The LC-MS methodology and conditions used to analyse pritelivir in plasma samples from the PK studies described in Examples 1 to 5 are provided in Table 1.
# An aqueous suspension of crystalline pritelivir free base (dihydrate) in a 0.9% NaCl+0.5% poloxamer 188 vehicle at a concentration of 5.0 mg/mL was prepared as follows: • 1) Vehicle (0.9% w/w NaCl and 0.5% w/w poloxamer 188) was prepared by dissolving NaCl and poloxamer 188 in water. • 2) Appropriate amount of crystalline pritelivir free base (dihydrate) was weighed and added to the vehicle. • 3) Mixture was stirred for 15 minutes, then vortexed for 1 minute and then sonicated for 10 minutes. • 4) The final dosing formulation was a homogenous white cloudy suspension.
# Male non-naïve beagles were used for the dog PK study. The animals had free access to food and water. The prepared suspension was administered via subcutaneous injection to each animal group (n=3) with a dosing volume of 2 mL/kg to achieve a 10 mg/kg dose.
# At each time point, approximately 0.5 mL of whole blood was collected into K2EDTA tubes. Blood samples were put on ice and centrifuged at 2000 g for 5 min to obtain plasma samples within 15 minutes. Plasma samples were stored at approximately −70° C. until analyzed by LC-MS.
# [3] = Example 5: comparative pritelivir solution PK study in rat following IV/SC administration; assay type: in vivo, male Sprague Dawley rats; conditions: for AUC(0-t): male, Sprague Dawley, plasma, solution, n = 3
# Procedure: A solution of crystalline pritelivir free base (dihydrate) in 5% NMP, 5% Solutol HS15 & 90% saline at a concentration of 0.5 mg/mL was prepared as follows: • 1) A stock solution of 10 mg/mL of pritelivir (dihydrate) in NMP was prepared. • 2) Equal volumes of the pritelivir stock solution and Solutol HS15 were combined and mixed. • 3) The above solution was diluted with normal saline to reach target 0.5 mg/mL pritelivir concentration. The formulation was a clear solution.
# Male Sprague Dawley (SD) rats with ~300 g body weight (ages 6-8 weeks) were used for the pharmacokinetic study. The animals had free access to food and water. The pritelivir solution described above was administered via intravenous injection to animals (n=3) with a dosing volume of 2 mL/kg to achieve a 1 mg/kg dose. For subcutaneous injection, the dosing volume of 10 mL/kg was utilized to achieve a 5 mg/kg dose.
# At each time point, approximately 200 μL whole blood was collected in a K2EDTA tube via the jugular vein. Blood samples were put on ice and centrifuged at 2000 g for 5 min to obtain a plasma sample within 15 minutes. Plasma samples were stored at approximately −70° C. until analyzed by LC-MS according to the method described above.
# HSV-1 [4] = conditions: Field et al. (2013); read-out: in-vitro EC50 against HSV-1; cited from earlier work
# [5] = Human alphaherpesvirus 1, Vero, 96 h
# [6] = Human alphaherpesvirus 2, Vero, 120 h, CPE assay, vero cells, 5 days, read-out: in vitro EC50 against HSV-2
EC50 (HSV-1 [1]; [5]),EC50 (HSV-2 G strain; [6]),plasma exposure after SC administration [2],"F ([3]; intravenous (IV), 1 mg/kg)","AUC(0-t) ([3]; intravenous (IV), 1 mg/kg)","AUC(0-t) ([3]; subcutaneous (SC), 5 mg/kg)",EC50 (HSV-1 [1]),"EC50 (HSV-2 G strain; CPE assay, vero cells, 5 days, read-out: in vitro EC50 against HSV-2)","EC50 (HSV-2 G strain; Human alphaherpesvirus 2, Vero, Example 9, n=35, read-out: EC50 in the HSV-2 antiviral assay)",Structure (SMILES),EC50 (HSV-1 [4])
47 nM,55 nM,prolonged exposure was achieved,100%,31.8 µg·h/mL,185 µg·h/mL,,,,"Cc1nc(N(C)C(=O)Cc2ccc(-c3ccccn3)cc2)sc1S(N)(=O)=O [pritelivir, N-methyl-N-(4-methyl-5-sulfamoyl-1,3-thiazol-2-yl)-2-[4-(pyridin-2-yl)phenyl]acetamide]",26 nM
~19 nM,~11 nM,,,,,15 nM,13 nM,11 nM,"Cc1nc(N2CCCN(c3ccc(-c4cc(F)ccc4F)cc3)C2=O)sc1S(N)(=O)=O [Compound 1, 2-(3-(2′,5′-difluoro-[1,1′-biphenyl]-4-yl)-2-oxotetrahydropyrimidin-1(2H)-yl)-4-methylthiazole-5-sulfonamide]",
